Consider 45 compounds from patent US20240262806A1, “INHIBITORS OF NLRP3” (PTC THERAPEUTICS, INC., priority 2021, published 2024).

SMILES strings stand for the structures. Where a name gives a salt, the structure may show the parent alone.

This test relates to NLRP3 inflammasome. The experiment in a line: IL-1β Secretion Assay (NLRP3-dependent IL-1β secretion in PMA-differentiated THP-1 cells, nigericin activation, HTRF). The format is cell-based. To be noted: Homo sapiens, THP-1, THP-1 cells, 100 ng/mL PMA 24 h, compound 20 h, 2.5 μM Nigericin 3 h; read-out: IC50 IL-1β Inhibition. In a few lines:
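IL-1β release, quantified by HTRF after nigericin activation of the NLRP3 inflammasome, was the read-out. A logistic fit of percent inhibition gave IC50.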
(In TR-FRET formats the signal depends on donor and acceptor labels being close together.)
Consider `CCN1CCC[C@@H](Nc2nnc(-c3ccc(C(F)(F)F)cc3O)c3cccn23)C1` [Compound I-479], for which the IC50 is less than 1 nM.

Regarding `CN1CCC[C@@H](Nc2nnc(-c3ccc(C(F)(F)F)cc3OC(F)F)c3ccccc23)C1` [Compound I-120], the concentration for half-maximal inhibition (IC50) was in the range of 1 to 10 nM.

For `CCN1CCC[C@@H](Nc2nnc(-c3ccc(C(F)(F)F)cc3O)c3c2CCCC3)C1` [Compound I-19], the IC50 was less than 1 nM.

In the case of `Cc1cccc(O)c1-c1nnc(N[C@@H]2CCCN(C)C2)c2cnccc12` [Compound I-105], the IC50 was in the range of 1 to 10 nM.

Turning to `OCCN1CCC[C@@H](Nc2nnc(-c3ccc(C(F)(F)F)cc3O)c3cncn23)C1` [Compound I-350], the IC50 fell in the range of 1 to 10 nM.

Regarding `COc1ccc(-c2nnc(N[C@@H]3CCCN(C)C3)n3cccc23)c(C(F)(F)F)c1` [Compound I-370], the IC50 was 1 to 10 nM.

With `Cc1cc(C)c(-c2nnc(N[C@@H]3CCCN(C)C3)c3cnccc23)c(C)c1` [Compound I-205], the IC50 was 1 to 10 nM.

Regarding `OCCN1CCC[C@@H](Nc2nnc(-c3c(O)cccc3F)c3ccncc23)C1` [Compound I-285, 3-Fluoro-2-[4-[[(3R)-1-(2-hydroxyethyl)-3-piperidyl]amino]pyrido[3,4-d]pyridazin-1-yl]phenol], the IC50 was in the range of 1 to 10 nM.

As for `CN1CCC[C@@H](Nc2nnc(-c3ccc(C(F)(F)F)cc3O)c3cnn(C)c23)C1` [Compound I-146, 2-[1-Methyl-7-[[(3R)-1-methyl-3-piperidyl]amino]pyrazolo[3,4-d]pyridazin-4-yl]-5-(trifluoromethyl)phenol], the IC50 was less than 1 nM.

`Oc1cc(C(F)(F)F)ccc1-c1nnc(O[C@@H]2CCCNC2)c2ccccc12` [Compound I-21]: the IC50 is 10 to 100 nM.

Consider `COc1cc(C(F)(F)F)ccc1-c1nnc(N[C@@H]2CCCN(C)C2)n2ccnc12` [Compound I-386, 8-[2-Methoxy-4-(trifluoromethyl)phenyl]-N-[(3R)-1-methyl-3-piperidyl]imidazo[1,2-d][1,2,4]triazin-5-amine formic acid salt], for which the IC50 was in the range of 100 to 300 nM.

On to `COc1cc(C(F)F)ccc1-c1nnc(N[C@@H]2CCCN(C)C2)c2cnccc12` [Compound I-234], for which the IC50 is 10 to 100 nM.

In the case of `CCOc1cc(O)c(-c2nnc(N[C@@H]3CCCN(C)C3)n3cccc23)c(F)c1` [Compound I-630], the IC50 lay in the range of 1 to 10 nM.

For the compound `Cc1ccc(-c2nnc(N[C@@H]3CCCN(C)C3)c3ccccc23)c(O)c1` [Compound I-25], the half-inhibitory concentration (IC50) is less than 1 nM.

In the case of `Cc1ccc(-c2nnc(N[C@@H]3CCCN(C)C3)n3cccc23)c(C(F)(F)F)c1` [Compound I-533], the IC50 fell in the range of 1 to 10 nM.

With `CCN1C[C@H](F)C[C@@H](Nc2nnc(-c3ccc(OC(F)(F)F)cc3O)c3c(F)ccn23)C1` [Compound I-598], the IC50 lay in the range of 1 to 10 nM.

For the compound `Cc1cc(O)c(-c2nnc(N[C@@H]3CCC[C@H](O)C3)n3cccc23)c(F)c1` [Compound I-422], the IC50 is 1 to 10 nM.

Turning to `Oc1cc(C(F)(F)F)ccc1-c1nnc(CC2CCCNC2)c2ccccc12` (stereo not drawn) [Compound I-30], the half-maximal inhibitory concentration (IC50) fell in the range of 10 to 100 nM.

Consider `Cc1cc(O)c(-c2nnc(NCC(C)(C)O)n3cccc23)c(F)c1` [Compound I-539], for which the IC50 lay in the range of 1 to 10 nM.

With `CN1CCCC(Nc2nnc(-c3ccc(C(F)(F)F)cc3O)c3ccncc23)CC1` (stereo not drawn) [Compound I-263], the IC50 lay in the range of 1 to 10 nM.

Regarding `FC(F)Oc1cc(C(F)(F)F)ccc1-c1nnc(N[C@H]2CCOC2)n2cccc12` [Compound I-458], the IC50 lay in the range of 100 to 300 nM.

Regarding `Cc1ccc(-c2nnc(N[C@@H]3CCCN(C)C3)c3ccccc23)c(OC(F)F)c1` [Compound I-135], the half-maximal inhibitory concentration (IC50) is 1 to 10 nM.

With `C[C@]1(O)C[C@H](Nc2nnc(-c3ccc(C(F)(F)F)cc3O)c3ccncc23)C1` [Compound I-316], the IC50 is 1 to 10 nM.

In the case of `N[C@H]1CCC[C@@H](Nc2nnc(-c3ccc(C(F)(F)F)cc3OC(F)F)c3cccn23)C1` [Compound I-378], the IC50 lay within 10 to 100 nM.

On to `CCN1C[C@H](F)C[C@@H](Nc2nnc(-c3c(O)cc(Cl)cc3F)c3cccn23)C1` [Compound I-620], for which the IC50 was in the range of 1 to 10 nM.

For the compound `CN1CCC[C@@H](Nc2nnc(-c3ccc(C(F)(F)F)cc3O)c3cnnn23)C1` [Compound I-461, (R)-2-(7-((1-Methylpiperidin-3-yl)amino)-[1,2,3]triazolo[1,5-d][1,2,4]triazin-4-yl)-5-(trifluoromethyl)phenol], the IC50 lay in the range of 1 to 10 nM.

As to `Oc1cc(C(F)(F)F)ccc1-c1nnc(N[C@@H]2CCOC2)n2cccc12` [Compound I-474], the IC50 was in the range of 10 to 100 nM.

With `CN1CCC[C@@H](Nc2nnc(-c3ccc(C(F)(F)F)cc3-c3ccccc3)c3ccncc23)C1` [Compound I-202], the IC50 is 10 to 100 nM.

For the compound `Oc1cc(C(F)(F)F)ccc1-c1nnc(N[C@H]2CNCC[C@H]2F)c2cnccc12` [Compound I-301], the IC50 fell in the range of 1 to 10 nM.

Take `CN1CCC[C@@H](Nc2nnc(-c3ccc(O)cc3O)c3ccccc23)C1` [Compound I-15, (R)-4-(4-((1-methylpiperidin-3-yl)amino)phthalazin-1-yl)benzene-1,3-diol]: the IC50 lay in the range of 100 to 300 nM.

`Cc1cc2c(-c3c(O)cc(C(F)(F)F)cc3F)nnc(N[C@@H]3CCCN(C)C3)n2n1` [Compound I-363]: the IC50 is less than 1 nM.

For the compound `FC(F)OCCN1CCC[C@@H](Nc2nnc(-c3ccc(C(F)(F)F)cc3OC(F)F)c3cccn23)C1` [Compound I-323, 1-[2-(difluoromethoxy)-4-(trifluoromethyl)phenyl]-N-[(3R)-1-[2-(difluoromethoxy)ethyl]-3-piperidyl]pyrrolo[1,2-d][1,2,4]triazin-4-amine], the IC50 is 1 to 10 nM.

As for `CO[C@H]1CCC[C@@H](Nc2nnc(-c3ccc(C(F)(F)F)cc3O)c3cccn23)C1` [Compound I-400], the IC50 was 100 to 300 nM.

With `Cc1ccc(-c2nnc(N[C@@H]3CCCN(C)C3)c3cnccc23)c(O)n1` [Compound I-78], the IC50 was 10 to 100 nM.

Take `Cc1ccc(-c2nnc(N[C@@H]3CCCN(C)C3)c3cnccc23)c(C(F)F)c1` [Compound I-299]: the IC50 was less than 1 nM.

Take `CN1CCC[C@@H](Nc2nnc(-c3ccc(C(F)(F)F)cc3-c3cnn(C)c3)c3cnccc23)C1` [Compound I-189]: the IC50 was 10 to 100 nM.

As to `Cc1cc(O)c(-c2nnc(N[C@@H]3CCCN(C)C3)c3cnccc23)cc1F` [Compound I-88], the IC50 is less than 1 nM.

Consider `CN1CCC[C@@H](Nc2nnc(-c3ccc(C(F)F)cc3F)c3ccncc23)C1` [Compound I-249], for which the IC50 was 10 to 100 nM.

On to `COc1ccc(-c2nnc(NC[C@@H](C)O)n3cccc23)c(O)c1` [Compound I-587], for which the IC50 lay in the range of 10 to 100 nM.

For `CCN1CCC[C@@H](Nc2nnc(-c3ccc(OC(F)(F)F)cc3OC(F)F)c3cccn23)C1` [Compound I-565], the IC50 was in the range of 1 to 10 nM.

On to `CN1CCC[C@@H](Nc2nnc(-c3ccc(C#N)cc3O)c3ccccc23)C1` [Compound I-24], for which the IC50 was less than 1 nM.

Regarding `CN1CCC[C@H]1CNc1nnc(-c2ccc(C(F)(F)F)cc2O)c2ccncc12` [Compound I-112], the IC50 is less than 1 nM.

Regarding `CN1CCN(CCNc2nnc(-c3ccc(C(F)(F)F)cc3O)c3ccccc23)CC1` [Compound I-161], the half-inhibitory concentration (IC50) is 10 to 100 nM.

For `CN1CCOCC(Nc2nnc(-c3ccc(C(F)(F)F)cc3O)c3ccncc23)C1` (stereo not drawn) [Compound I-262], the IC50 lay in the range of 1 to 10 nM.

As for `CN1C[C@H](F)C[C@@H](Nc2nnc(-c3c(O)cc(Cl)cc3F)c3cccn23)C1` [Compound I-481], the IC50 is 1 to 10 nM.

The IC50 is the concentration that inhibits the measured activity by half.
